Consider 13 compounds from patent US12291522B2, “Galectin-3 inhibitors” (BRISTOL-MYERS SQUIBB COMPANY, priority 2020, dated 2025).

Like-named read-outs stand apart in the source and are kept apart here. A value given as a limit tells only on which side of the number the result lay.

Assay [1] has as its target T1, hCRBN (NanoLuc-CRBN fusion construct in HEK-293 cells) (Homo sapiens, UniProt Q96SW2).
T1 construct: expressed in transfected cells; host or cells: HEK-293
The assay can be described thus: CRBN BRET Target Engagement. The format is cell-based. The following applies: NanoLuc-CRBN transfected HEK-293 cells, BRET with CRBN Probe. As for the experimental part:
CRBN BRET Target Engagement (hCRBN IC50 (μM))
NanoLuc-CRBN fusion construct was transfected in HEK-293 cells using FuGENE HD (Promega) according to the manufacturer's protocol. In brief, Nluc-CRBN was diluted into Transfection Carrier DNA (Promega) 1:10 (mass/mass), to which FuGENE HD was 1:3 (μg DNA:μL FuGENE HD). One part (vol) of DNA:FuGENE HD complexes were combined with 20 parts (vol) of HEK-293 cells suspended at a density of […]. Cells were incubated for ˜20 hr at 37° C./5% CO2. Following transfection, cells were washed and resuspended at 200,000 cells/mL in OptiMEM without phenol red (Gibco).
For BRET measurements, cells were seeded in a 384-well nonbinding surface plate (Corning) plate for a final count of 10,000 cells/well. Compounds were dissolved at 10 mM in dimethylsulfoxide (DMSO) and evaluated at eleven concentrations using a high concentration of […]. CRBN Probe was used for equilibrium measurements, employing a final concentration of approximately EC50-80. For live-cell measurements, 20 nM of CRBN Probe was added. For the live-cell assay conditions, the plates were incubated for 2 hours at 37° C./5% CO2. NanoBRET NanoGlo Substrate and Extracellular Nanoluc Inhibitor (Promega) were added according to manufacturer's guidelines. For lytic cell measurements, digitonin was added to the cells to a final concentration of 50 μg/mL and 20 nM of CRBN Probe was added. To measure NanoBRET in permeabilized cells, extracellular Nluc inhibitor was omitted during the detection step. For all BRET experiments, the Envision 2015 (Perkin Elmer) equipped with a BRET2 Enh mirror, BRET 647 nM/75 nM Bandwidth and BC703 460 nM/80 nM Bandwidth filters was used for readouts. Each read was integrated for 0.5 s.
To determine compound potency (IC50), BRET ratios for each dilution series was first normalized to a % Inhibition value via Equation 1, where “S” represents Sample BRET, “B” represents Background BRET, and “T” represents Total BRET. In this equation, the background control (B) consists of NanoLuc-CRBN expressing cells and no CRBN Probe. The total BRET Ratio (T) consists of NanoLuc-CRBN expressing cells, CRBN Probe, and an amount of DMSO at a concentration equivalent to that added when testing compounds.
Following normalization, the percent inhibition values are plotted as a function of compound concentration and fit to Equation 2. […]
(In general: BRET reads energy transfer from a luciferase to a nearby fluorophore.)

In assay [2] the target is T2, Gal3 (Human Galectin-3) in THP-1 cells (Homo sapiens, UniProt P17931).
T2 construct: host or cells: THP-1
T2 sequence (P17931 whole entry): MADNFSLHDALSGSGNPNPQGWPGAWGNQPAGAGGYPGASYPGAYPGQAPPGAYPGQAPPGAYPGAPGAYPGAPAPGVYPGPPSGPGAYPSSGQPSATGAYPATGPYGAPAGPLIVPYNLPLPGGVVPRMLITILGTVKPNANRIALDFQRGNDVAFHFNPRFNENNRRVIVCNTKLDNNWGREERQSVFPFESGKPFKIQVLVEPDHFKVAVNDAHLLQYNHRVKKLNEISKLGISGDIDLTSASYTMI
The assay can be described thus: ELISA Gal3 Degradation Assay in THP-1 Cells. It counts as cell-based. The following applies: 48 hours, culture media Gal3 by ELISA. As for the experimental part: [formula] ELISA Gal3 Degradation Assay in THP-1 Cells
THP-1 cells (ATCC, Cat #TIB-202), a human monocyte cell line derived from leukemia were plated at 2E6 cells/mL in 200 uL/well of RPMI 1640 (ThermoFisher, Cat #11835) in 96-well plates. Cells were treated with DMSO as a control and various concentrations of compounds for 48 hours. After the treatment, the culture media were collected. The PBS washed cell pellets were lysed in Lysis Buffer (Cell Signaling, Cat #9803) supplemented with 1XProtease Inhibitor Cocktail (Cell Signaling, Cat #5872). Gal3 levels in culture media and cell lysates were quantified by ELISA assays (Human Galectin-3 DuoSet ELISA kit, R&D Systems, Cat #DY1154) according to manufacturer's instructions. The cell culture media were also used for the assessment of cellular toxicity (LDH Assay kit, R&D Systems, DY994). The IC50 (degradation concentration at 50%) values were calculated based on the cellular Gal3 protein levels using DMSO as the control.

Assay [3] addresses His-tagged recombinant human Gal-3 (hGal-3) (Homo sapiens, UniProt P17931). Kind of assay: Gal-3 HTRF assay (His-tagged hGal-3 / B-ASF). The format is binding. The following applies: 15 nM hGal-3, 15 nM B-ASF. Here is the method:
ASSAY BUFFER Composition: 25 mM HEPES, 100 mM NaCl, 0.005% Tween 20, 0.05% BSA prepared in sterile water (all reagents from Sigma).
• Positive Control: 100% DMSO (1 μL)+His-tagged hGal-3 (20 μL)+B-ASF (20 μL)+Anti-His Terbium Antibody (5 μL)+Strep d2 Antibody (5 μL). • Negative Control: 100% DMSO (1 μL)+His-tagged hGal-3 (20 μL)+Anti His Terbium Antibody (5 μL)+Strep d2 Aantibody (5 μL). Stocks Preparation:
PROTOCOL: The Gal-3 assays were performed in 384 white Opti plates in three replicates at room temperature with gentle shaking at 250-300 rpmFrom the original stocks, […] working stock concentrations of His-tagged recombinant human Gal-3 (hGal-3) and that of B-ASF were prepared. From the working stock, 20 μL of hGal-3 (15 nM) and 20 μL B-ASF (15 nM) were added to the plates. In Negative Control, only hGal-3 was added. A concentration range of 50× working stocks were prepared for the compounds in 100% DMSO. Aliquots of luL of the compounds were added to the wells and pre-incubated with 20 μL hGal-3 per well for 30 minutes Then 20 μL B-ASF wereadded and incubated for another 1 hour. To detect the signal, 5 μL (final conc. of 1.0 nM) terbium labelled Anti-His antibody was added and incubated for 30 min followed by adding 5 μL (final conc. of 20 nM) Streptavidin d2 and incubation for another 1 hour. The assay signal was detected using HTRF screen protocol (Excitation wavelength=340 nm, emission wavelength=615 nm/665 nm) on Envision 2104 Multilabel Reader. Data analysed using Toolset and Curve Master. Results are reported in the experimental section (IC50 in μM).
In general terms: TR-FRET usually uses a lanthanide donor and a delayed reading to cut background.

Where [4] appears, read: test 1, read-out: Supernatant (IC50) test 1.
[5] abbreviates: test 2, read-out: Supernatant (IC50) test 2.

T1 sequence (Q96SW2 whole entry, the tested form may be a part): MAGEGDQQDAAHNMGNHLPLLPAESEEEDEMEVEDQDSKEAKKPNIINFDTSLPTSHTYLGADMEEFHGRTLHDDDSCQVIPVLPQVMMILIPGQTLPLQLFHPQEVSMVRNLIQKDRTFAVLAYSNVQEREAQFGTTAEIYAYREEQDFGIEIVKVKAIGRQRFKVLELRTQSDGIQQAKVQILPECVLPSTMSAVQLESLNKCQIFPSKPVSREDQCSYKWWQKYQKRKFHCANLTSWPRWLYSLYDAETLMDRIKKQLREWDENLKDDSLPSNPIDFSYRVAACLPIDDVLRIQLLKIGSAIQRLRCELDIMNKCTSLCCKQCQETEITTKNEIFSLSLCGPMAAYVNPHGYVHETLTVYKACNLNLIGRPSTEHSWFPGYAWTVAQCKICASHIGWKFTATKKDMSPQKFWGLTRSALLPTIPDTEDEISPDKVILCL
Sequence of His-tagged recombinant human Gal-3 (hGal-3) (P17931 whole entry): as the sequence (P17931 whole entry) above

As a reminder, the IC50 is the point on the concentration scale where inhibition reaches its midpoint. In the case of `Cc1nc([C@@H]2O[C@H](CO)[C@H](O)[C@H](n3cc(-c4cc(F)c(Cl)c(F)c4)nn3)[C@H]2OCC(=O)N[C@H]2C[C@@H](Oc3ccc(C(=O)Nc4ccc5c(c4)CN(C4CCC(=O)NC4=O)C5=O)cc3)C2)n(-c2cc(Cl)ccc2C(F)(F)F)n1` (stereo partly drawn) [Example 3, 4-(cis-3-(2-(((2S,3R,4S,5R,6R)-2-(1-(5-Chloro-2-(trifluoromethyl)phenyl)-3-methyl-1H-1,2,4-triazol-5-yl)-4-(4-(4-chloro-3,5-difluorophenyl)-1H-1,2,3-triazol-1-yl)-5-hydroxy-6-(hydroxymethyl)tetrahydro-2H-pyran-3-yl)oxy)acetamido)cyclobutoxy)-N-(2-(2,6-dioxopiperidin-3-yl)-1-oxoisoindolin-5-yl)benzamide], the 50% inhibitory concentration (IC50) is 126 nM in assay [1], less than 10 nM in assay [2] (setting [4]), 48 nM in assay [2] (setting [5]) and 70 nM in assay [3].

As to `Cc1nc([C@@H]2O[C@H](CO)[C@H](O)[C@H](n3cc(-c4cc(F)c(Cl)c(F)c4)nn3)[C@H]2OCC(=O)N[C@H]2C[C@@H](Oc3ccc(C(=O)Nc4ccc5c(c4)CN(C4CCC(=O)NC4=O)C5=O)nc3)C2)n(-c2cc(Cl)ccc2C(F)(F)F)n1` (stereo partly drawn) [Example 4, 5-(cis-3-(2-(((2S,3R,4S,5R,6R)-2-(1-(5-Chloro-2-(trifluoromethyl)phenyl)-3-methyl-1H-1,2,4-triazol-5-yl)-4-(4-(4-chloro-3,5-difluorophenyl)-1H-1,2,3-triazol-1-yl)-5-hydroxy-6-(hydroxymethyl)tetrahydro-2H-pyran-3-yl)oxy)acetamido)cyclobutoxy)-N-(2-(2,6-dioxopiperidin-3-yl)-1-oxoisoindolin-5-yl)picolinamide], the half-inhibitory concentration (IC50) in assay [1] amounted to 174 nM; in assay [2] (setting [4]) it was 68 nM; in assay [2] (setting [5]), 96 nM; in assay [3], 81 nM.

For `Cc1nc([C@@H]2O[C@H](CO)[C@H](O)[C@H](n3cc(-c4cc(F)c(Cl)c(F)c4)nn3)[C@H]2OCC(=O)N2CC(COc3ccc(C(=O)Nc4ccc5c(c4)CN(C4CCC(=O)N(C)C4=O)C5=O)cc3)C2)n(-c2cc(Cl)ccc2C(F)(F)F)n1` (stereo partly drawn) [Example 9, 4-((1-(2-(((2S,3R,4S,5R,6R)-2-(1-(5-Chloro-2-(trifluoromethyl)phenyl)-3-methyl-1H-1,2,4-triazol-5-yl)-4-(4-(4-chloro-3,5-difluorophenyl)-1H-1,2,3-triazol-1-yl)-5-hydroxy-6-(hydroxymethyl)tetrahydro-2H-pyran-3-yl)oxy)acetyl)azetidin-3-yl)methoxy)-N-(2-(1-methyl-2,6-dioxopiperidin-3-yl)-1-oxoisoindolin-5-yl)benzamide], the IC50 in assay [1] turned out to be 8950 nM; in assay [3], 85 nM.

Turning to `Cc1nc([C@@H]2O[C@H](CO)[C@H](O)[C@H](n3cc(-c4cc(F)c(Cl)c(F)c4)nn3)[C@H]2OCC(=O)NCCOCCOCCNC(=O)COc2cccc3c2C(=O)N(C2CCC(=O)NC2=O)C3=O)n(-c2cc(Cl)ccc2C(F)(F)F)n1` (stereo partly drawn) [Example 12], the IC50 was 520 nM in assay [1] and 20 nM in assay [3].

Take `Cc1nc([C@@H]2O[C@H](CO)[C@H](O)[C@H](n3cc(-c4cc(F)c(Cl)c(F)c4)nn3)[C@H]2OCC(=O)NCCOCCOCCOCCNC(=O)c2ccc3c(c2)C(=O)N(C2CCC(=O)NC2=O)C3=O)n(-c2cc(Cl)ccc2C(F)(F)F)n1` (stereo partly drawn) [Example 13]: the values for the 50% inhibitory concentration (IC50) in assay [1] and in assay [3] were 810 nM and 66 nM, respectively.

As to `Cc1nc([C@@H]2O[C@H](CO)[C@H](O)[C@H](n3cc(-c4cc(F)c(Cl)c(F)c4)nn3)[C@H]2OCC(=O)NCCOCCOCCNC(=O)c2ccc3c(c2)C(=O)N(C2CCC(=O)NC2=O)C3=O)n(-c2cc(Cl)ccc2C(F)(F)F)n1` (stereo partly drawn) [Example 14], the values for the IC50 in assay [1] and in assay [3] were 1500 nM and 25 nM, respectively.

Regarding `Cc1nc([C@@H]2O[C@H](CO)[C@H](O)[C@H](n3cc(-c4cc(F)c(Cl)c(F)c4)nn3)[C@H]2OCC(=O)N[C@H]2C[C@H](Oc3ccc(C(=O)Nc4ccc5c(c4)CN(C4CCC(=O)NC4=O)C5=O)cc3)C2)n(-c2cc(Cl)ccc2C(F)(F)F)n1` (stereo partly drawn) [Example 15], the IC50 in assay [1] was found to be 380 nM; in assay [3], 420 nM.

Take `Cc1nc([C@@H]2O[C@H](CO)[C@H](O)[C@H](n3cc(-c4cc(F)c(Cl)c(F)c4)nn3)[C@H]2OCC(=O)NCCOCCOCCNC(=O)c2ccc3c(c2)C(=O)N(C2CCC(=O)N(C)C2=O)C3=O)n(-c2cc(Cl)ccc2C(F)(F)F)n1` (stereo partly drawn) [Example 16]: the values for the half-inhibitory concentration (IC50) in assay [1] and in assay [3] were more than 50000 nM and 69 nM, respectively.

`Cc1nc([C@@H]2O[C@H](CO)[C@H](O)[C@H](n3cc(-c4cc(F)c(Cl)c(F)c4)nn3)[C@H]2OCC(=O)N[C@H]2C[C@H](Oc3ccc(C(=O)Nc4ccc5c(c4)CN(C4CCC(=O)N(C)C4=O)C5=O)cc3)C2)n(-c2cc(Cl)ccc2C(F)(F)F)n1` (stereo partly drawn) [Example 17]: the half-inhibitory concentration (IC50) was more than 50000 nM in assay [1] and 140 nM in assay [3].

Regarding `Cc1nc([C@@H]2O[C@H](CO)[C@H](O)[C@H](n3cc(-c4cc(F)c(Cl)c(F)c4)nn3)[C@H]2OCC(=O)N2Cc3ccc(C(=O)Nc4ccc5c(c4)CN(C4CCC(=O)NC4=O)C5=O)cc3C2)n(-c2cc(Cl)ccc2C(F)(F)F)n1` (stereo partly drawn) [Example 19], the IC50 was 17 nM in assay [1] and 51 nM in assay [3].

Turning to `Cc1nc([C@@H]2O[C@H](CO)[C@H](O)[C@H](n3cc(-c4cc(F)c(Cl)c(F)c4)nn3)[C@H]2OCC(=O)N(CCl)CCCOc2ccc(C(=O)Nc3ccc4c(c3)CN(C3CCC(=O)NC3=O)C4=O)cc2)n(-c2cc(Cl)ccc2C(F)(F)F)n1` (stereo partly drawn) [Example 24], the half-inhibitory concentration (IC50) in assay [1] amounted to 2160 nM; in assay [3], 212 nM.

As for `Cc1nc([C@@H]2O[C@H](CO)[C@H](O)[C@H](n3cc(-c4cc(F)c(Cl)c(F)c4)nn3)[C@H]2OCC(=O)N2CC(Oc3ccc(C(=O)Nc4ccc5c(c4)CN(C4CCC(=O)N(C)C4=O)C5=O)cc3)C2)n(-c2cc(Cl)ccc2C(F)(F)F)n1` (stereo partly drawn) [Example 28], the 50% inhibitory concentration (IC50) in assay [1] worked out at 10400 nM; in assay [3], 98 nM.

`Cc1nc([C@@H]2O[C@H](CO)[C@H](O)[C@H](n3cc(-c4cc(F)c(Cl)c(F)c4)nn3)[C@H]2OCC(=O)N2CC3(CC(COc4ccc(C(=O)Nc5ccc6c(c5)CN(C5CCC(=O)NC5=O)C6=O)cc4)C3)C2)n(-c2cc(Cl)ccc2C(F)(F)F)n1` (stereo partly drawn) [Example 29]: the IC50 in assay [1] was determined as 350 nM; in assay [3], 160 nM.
